# Experimental data published in patent publication US8951964B2, “Phenanthridine macrocyclic hepatitis C serine protease inhibitors” (priority 2010, dated 2015).
# Test system: genotype 1a replicon (1a-H77)
# Assay: 1a stable replicon (luciferase reporter)
# Assay type: cell-based, HCV
# Settings: Hepatitis C virus, Huh-7, luciferase reporter, HuH-7 cells, 5% FBS
row,Structure (SMILES),EC50 [nM]
1,Cc1cc(C(=O)N[C@H]2CCCCC/C=C\[C@@H]3C[C@@]3(C(=O)NS(=O)(=O)C3(C)CC3)NC(=O)[C@@H]3C[C@@H](Oc4nc5ccccc5c5ccc(F)cc45)CN3C2=O)no1,0.5 to 1
2,CC1(S(=O)(=O)NC(=O)[C@@]23C[C@H]2/C=C\CCCCC[C@H](NC(=O)c2ccon2)C(=O)N2C[C@H](Oc4nc5cc(F)ccc5c5cc(F)ccc45)C[C@H]2C(=O)N3)CC1,0.1 to 0.5
3,CC1(S(=O)(=O)NC(=O)[C@@]23C[C@H]2/C=C\CCCCC[C@H](NC(=O)c2cncs2)C(=O)N2C[C@H](Oc4nc5cc(F)ccc5c5ccccc45)C[C@H]2C(=O)N3)CC1,0.5 to 1
4,Cc1cc(C(=O)N[C@H]2CCCCC/C=C\[C@@H]3C[C@@]3(C(=O)NS(=O)(=O)C3(C)CC3)NC(=O)[C@@H]3C[C@@H](Oc4nc5cc(OC(F)(F)F)ccc5c5ccccc45)CN3C2=O)no1,0.5 to 1
5,Cc1cc(C(=O)N[C@H]2CCCCC/C=C\[C@@H]3C[C@@]3(C(=O)NS(=O)(=O)C3CC3)NC(=O)[C@@H]3C[C@@H](Oc4nc5cc(F)ccc5c5cc(F)ccc45)CN3C2=O)no1,0.1 to 0.5
6,Cc1cc(C(=O)N[C@H]2CCCCC/C=C\[C@@H]3C[C@@]3(C(=O)NS(=O)(=O)C3CC3)NC(=O)[C@@H]3C[C@@H](Oc4nc5cc(OC(F)(F)F)ccc5c5ccccc45)CN3C2=O)no1,0.5 to 1
7,Cn1ccc(C(=O)N[C@H]2CCCCC/C=C\[C@@H]3C[C@@]3(C(=O)NS(=O)(=O)C3(C)CC3)NC(=O)[C@@H]3C[C@@H](Oc4nc5ccccc5c5ccc(F)cc45)CN3C2=O)n1,0.1 to 0.5
8,Cn1ccc(C(=O)N[C@H]2CCCCC/C=C\[C@@H]3C[C@@]3(C(=O)NS(=O)(=O)C3(C)CC3)NC(=O)[C@@H]3C[C@@H](Oc4nc5ccccc5c5cc(F)ccc45)CN3C2=O)n1,0.5 to 1
9,CC1(S(=O)(=O)NC(=O)[C@@]23C[C@H]2/C=C\CCCCC[C@H](NC(=O)c2ccc(F)s2)C(=O)N2C[C@H](Oc4nc5cc(F)ccc5c5ccccc45)C[C@H]2C(=O)N3)CC1,0.5 to 1

# Same assay, conditions: luciferase reporter, HuH-7 cells, 5% FBS
row,Structure (SMILES),EC50 [nM]
1,O=C(N[C@H]1CCCCC/C=C\[C@@H]2C[C@@]2(C(=O)NS(=O)(=O)C2CC2)NC(=O)[C@@H]2C[C@@H](Oc3nc4cc(F)ccc4c4cc(F)ccc34)CN2C1=O)c1cscn1 [drawing 125],> 1

# Test system: genotype 1a transient replicon (1a-H77)
# Assay: 1a transient replicon (luciferase reporter)
# Assay type: cell-based, HCV
# Settings: Hepatitis C virus, HuH-7 cells, 5% FBS
row,Structure (SMILES),EC50 [nM]
1,Cc1cc(C(=O)N[C@H]2CCCCC/C=C\[C@@H]3C[C@@]3(C(=O)NS(=O)(=O)C3(C)CC3)NC(=O)[C@@H]3C[C@@H](Oc4nc5ccccc5c5ccc(F)cc45)CN3C2=O)no1,< 0.1
2,CC1(S(=O)(=O)NC(=O)[C@@]23C[C@H]2/C=C\CCCCC[C@H](NC(=O)c2ccon2)C(=O)N2C[C@H](Oc4nc5cc(F)ccc5c5cc(F)ccc45)C[C@H]2C(=O)N3)CC1,< 0.1
3,CC1(S(=O)(=O)NC(=O)[C@@]23C[C@H]2/C=C\CCCCC[C@H](NC(=O)c2cncs2)C(=O)N2C[C@H](Oc4nc5cc(F)ccc5c5ccccc45)C[C@H]2C(=O)N3)CC1,< 0.1
4,Cc1cc(C(=O)N[C@H]2CCCCC/C=C\[C@@H]3C[C@@]3(C(=O)NS(=O)(=O)C3(C)CC3)NC(=O)[C@@H]3C[C@@H](Oc4nc5cc(OC(F)(F)F)ccc5c5ccccc45)CN3C2=O)no1,0.1 to 0.5
5,Cc1cc(C(=O)N[C@H]2CCCCC/C=C\[C@@H]3C[C@@]3(C(=O)NS(=O)(=O)C3CC3)NC(=O)[C@@H]3C[C@@H](Oc4nc5cc(F)ccc5c5cc(F)ccc45)CN3C2=O)no1,0.1 to 0.5
6,Cc1cc(C(=O)N[C@H]2CCCCC/C=C\[C@@H]3C[C@@]3(C(=O)NS(=O)(=O)C3CC3)NC(=O)[C@@H]3C[C@@H](Oc4nc5cc(OC(F)(F)F)ccc5c5ccccc45)CN3C2=O)no1,< 0.1
7,Cn1ccc(C(=O)N[C@H]2CCCCC/C=C\[C@@H]3C[C@@]3(C(=O)NS(=O)(=O)C3(C)CC3)NC(=O)[C@@H]3C[C@@H](Oc4nc5ccccc5c5ccc(F)cc45)CN3C2=O)n1,0.1 to 0.5
8,Cn1ccc(C(=O)N[C@H]2CCCCC/C=C\[C@@H]3C[C@@]3(C(=O)NS(=O)(=O)C3(C)CC3)NC(=O)[C@@H]3C[C@@H](Oc4nc5ccccc5c5cc(F)ccc45)CN3C2=O)n1,0.1 to 0.5
9,CC1(S(=O)(=O)NC(=O)[C@@]23C[C@H]2/C=C\CCCCC[C@H](NC(=O)c2ccc(F)s2)C(=O)N2C[C@H](Oc4nc5cc(F)ccc5c5ccccc45)C[C@H]2C(=O)N3)CC1,< 0.1

# Same assay, conditions: HuH-7 cells, 5% FBS
row,Structure (SMILES),EC50 [nM]
1,O=C(N[C@H]1CCCCC/C=C\[C@@H]2C[C@@]2(C(=O)NS(=O)(=O)C2CC2)NC(=O)[C@@H]2C[C@@H](Oc3nc4cc(F)ccc4c4cc(F)ccc34)CN2C1=O)c1cscn1 [drawing 125],0.1 to 0.5

# Test system: genotype 3a NS3 gene in transient replicon
# Assay: 3a transient replicon (luciferase reporter)
# Assay type: cell-based, HCV
# Settings: Hepatitis C virus, Huh-7, read-out: 3a transient replicon (nM)
row,Structure (SMILES),EC50 [nM]
1,Cc1cc(C(=O)N[C@H]2CCCCC/C=C\[C@@H]3C[C@@]3(C(=O)NS(=O)(=O)C3(C)CC3)NC(=O)[C@@H]3C[C@@H](Oc4nc5ccccc5c5ccc(F)cc45)CN3C2=O)no1,> 1
2,CC1(S(=O)(=O)NC(=O)[C@@]23C[C@H]2/C=C\CCCCC[C@H](NC(=O)c2ccon2)C(=O)N2C[C@H](Oc4nc5cc(F)ccc5c5cc(F)ccc45)C[C@H]2C(=O)N3)CC1,> 1
3,CC1(S(=O)(=O)NC(=O)[C@@]23C[C@H]2/C=C\CCCCC[C@H](NC(=O)c2cncs2)C(=O)N2C[C@H](Oc4nc5cc(F)ccc5c5ccccc45)C[C@H]2C(=O)N3)CC1,> 1
4,Cc1cc(C(=O)N[C@H]2CCCCC/C=C\[C@@H]3C[C@@]3(C(=O)NS(=O)(=O)C3(C)CC3)NC(=O)[C@@H]3C[C@@H](Oc4nc5cc(OC(F)(F)F)ccc5c5ccccc45)CN3C2=O)no1,> 1
5,Cc1cc(C(=O)N[C@H]2CCCCC/C=C\[C@@H]3C[C@@]3(C(=O)NS(=O)(=O)C3CC3)NC(=O)[C@@H]3C[C@@H](Oc4nc5cc(F)ccc5c5cc(F)ccc45)CN3C2=O)no1,> 1
6,Cc1cc(C(=O)N[C@H]2CCCCC/C=C\[C@@H]3C[C@@]3(C(=O)NS(=O)(=O)C3CC3)NC(=O)[C@@H]3C[C@@H](Oc4nc5cc(OC(F)(F)F)ccc5c5ccccc45)CN3C2=O)no1,0.5 to 1
7,Cn1ccc(C(=O)N[C@H]2CCCCC/C=C\[C@@H]3C[C@@]3(C(=O)NS(=O)(=O)C3(C)CC3)NC(=O)[C@@H]3C[C@@H](Oc4nc5ccccc5c5ccc(F)cc45)CN3C2=O)n1,0.5 to 1
8,Cn1ccc(C(=O)N[C@H]2CCCCC/C=C\[C@@H]3C[C@@]3(C(=O)NS(=O)(=O)C3(C)CC3)NC(=O)[C@@H]3C[C@@H](Oc4nc5ccccc5c5cc(F)ccc45)CN3C2=O)n1,0.5 to 1
9,CC1(S(=O)(=O)NC(=O)[C@@]23C[C@H]2/C=C\CCCCC[C@H](NC(=O)c2ccc(F)s2)C(=O)N2C[C@H](Oc4nc5cc(F)ccc5c5ccccc45)C[C@H]2C(=O)N3)CC1,> 1

# Same assay, conditions: read-out: 3a transient replicon; luciferase reporter, HuH-7 cells, 5% FBS
row,Structure (SMILES),EC50 [nM]
1,O=C(N[C@H]1CCCCC/C=C\[C@@H]2C[C@@]2(C(=O)NS(=O)(=O)C2CC2)NC(=O)[C@@H]2C[C@@H](Oc3nc4cc(F)ccc4c4cc(F)ccc34)CN2C1=O)c1cscn1 [drawing 125],> 1

# Test system: genotype 1b replicon (1b-Con1, 1b-N)
# Assay: 1b stable replicon (luciferase reporter)
# Assay type: cell-based, HCV
# Settings: Hepatitis C virus, HuH-7 cells, 5% FBS
row,Structure (SMILES),EC50 [nM]
1,Cc1cc(C(=O)N[C@H]2CCCCC/C=C\[C@@H]3C[C@@]3(C(=O)NS(=O)(=O)C3(C)CC3)NC(=O)[C@@H]3C[C@@H](Oc4nc5ccccc5c5ccc(F)cc45)CN3C2=O)no1,0.5 to 1
2,CC1(S(=O)(=O)NC(=O)[C@@]23C[C@H]2/C=C\CCCCC[C@H](NC(=O)c2ccon2)C(=O)N2C[C@H](Oc4nc5cc(F)ccc5c5cc(F)ccc45)C[C@H]2C(=O)N3)CC1,0.1 to 0.5
3,CC1(S(=O)(=O)NC(=O)[C@@]23C[C@H]2/C=C\CCCCC[C@H](NC(=O)c2cncs2)C(=O)N2C[C@H](Oc4nc5cc(F)ccc5c5ccccc45)C[C@H]2C(=O)N3)CC1,0.5 to 1
4,Cc1cc(C(=O)N[C@H]2CCCCC/C=C\[C@@H]3C[C@@]3(C(=O)NS(=O)(=O)C3(C)CC3)NC(=O)[C@@H]3C[C@@H](Oc4nc5cc(OC(F)(F)F)ccc5c5ccccc45)CN3C2=O)no1,0.1 to 0.5
5,Cc1cc(C(=O)N[C@H]2CCCCC/C=C\[C@@H]3C[C@@]3(C(=O)NS(=O)(=O)C3CC3)NC(=O)[C@@H]3C[C@@H](Oc4nc5cc(F)ccc5c5cc(F)ccc45)CN3C2=O)no1,0.1 to 0.5
6,Cc1cc(C(=O)N[C@H]2CCCCC/C=C\[C@@H]3C[C@@]3(C(=O)NS(=O)(=O)C3CC3)NC(=O)[C@@H]3C[C@@H](Oc4nc5cc(OC(F)(F)F)ccc5c5ccccc45)CN3C2=O)no1,0.1 to 0.5
7,Cn1ccc(C(=O)N[C@H]2CCCCC/C=C\[C@@H]3C[C@@]3(C(=O)NS(=O)(=O)C3(C)CC3)NC(=O)[C@@H]3C[C@@H](Oc4nc5ccccc5c5ccc(F)cc45)CN3C2=O)n1,< 0.1
8,Cn1ccc(C(=O)N[C@H]2CCCCC/C=C\[C@@H]3C[C@@]3(C(=O)NS(=O)(=O)C3(C)CC3)NC(=O)[C@@H]3C[C@@H](Oc4nc5ccccc5c5cc(F)ccc45)CN3C2=O)n1,0.1 to 0.5
9,CC1(S(=O)(=O)NC(=O)[C@@]23C[C@H]2/C=C\CCCCC[C@H](NC(=O)c2ccc(F)s2)C(=O)N2C[C@H](Oc4nc5cc(F)ccc5c5ccccc45)C[C@H]2C(=O)N3)CC1,0.1 to 0.5

# Same assay, conditions: HuH-7 cells, 5% FBS
row,Structure (SMILES),EC50 [nM]
1,O=C(N[C@H]1CCCCC/C=C\[C@@H]2C[C@@]2(C(=O)NS(=O)(=O)C2CC2)NC(=O)[C@@H]2C[C@@H](Oc3nc4cc(F)ccc4c4cc(F)ccc34)CN2C1=O)c1cscn1 [drawing 125],0.1 to 0.5

# Test system: genotype 1b transient replicon
# Assay: 1b transient replicon (luciferase reporter)
# Assay type: cell-based, HCV
# Settings: Hepatitis C virus, HuH-7 cells, 5% FBS
row,Structure (SMILES),EC50 [nM]
1,Cc1cc(C(=O)N[C@H]2CCCCC/C=C\[C@@H]3C[C@@]3(C(=O)NS(=O)(=O)C3(C)CC3)NC(=O)[C@@H]3C[C@@H](Oc4nc5ccccc5c5ccc(F)cc45)CN3C2=O)no1,0.1 to 0.5
2,CC1(S(=O)(=O)NC(=O)[C@@]23C[C@H]2/C=C\CCCCC[C@H](NC(=O)c2ccon2)C(=O)N2C[C@H](Oc4nc5cc(F)ccc5c5cc(F)ccc45)C[C@H]2C(=O)N3)CC1,< 0.1
3,CC1(S(=O)(=O)NC(=O)[C@@]23C[C@H]2/C=C\CCCCC[C@H](NC(=O)c2cncs2)C(=O)N2C[C@H](Oc4nc5cc(F)ccc5c5ccccc45)C[C@H]2C(=O)N3)CC1,0.1 to 0.5
4,Cc1cc(C(=O)N[C@H]2CCCCC/C=C\[C@@H]3C[C@@]3(C(=O)NS(=O)(=O)C3(C)CC3)NC(=O)[C@@H]3C[C@@H](Oc4nc5cc(OC(F)(F)F)ccc5c5ccccc45)CN3C2=O)no1,0.1 to 0.5
5,Cc1cc(C(=O)N[C@H]2CCCCC/C=C\[C@@H]3C[C@@]3(C(=O)NS(=O)(=O)C3CC3)NC(=O)[C@@H]3C[C@@H](Oc4nc5cc(F)ccc5c5cc(F)ccc45)CN3C2=O)no1,0.1 to 0.5
6,Cc1cc(C(=O)N[C@H]2CCCCC/C=C\[C@@H]3C[C@@]3(C(=O)NS(=O)(=O)C3CC3)NC(=O)[C@@H]3C[C@@H](Oc4nc5cc(OC(F)(F)F)ccc5c5ccccc45)CN3C2=O)no1,< 0.1
7,Cn1ccc(C(=O)N[C@H]2CCCCC/C=C\[C@@H]3C[C@@]3(C(=O)NS(=O)(=O)C3(C)CC3)NC(=O)[C@@H]3C[C@@H](Oc4nc5ccccc5c5ccc(F)cc45)CN3C2=O)n1,0.1 to 0.5
8,Cn1ccc(C(=O)N[C@H]2CCCCC/C=C\[C@@H]3C[C@@]3(C(=O)NS(=O)(=O)C3(C)CC3)NC(=O)[C@@H]3C[C@@H](Oc4nc5ccccc5c5cc(F)ccc45)CN3C2=O)n1,0.1 to 0.5
9,CC1(S(=O)(=O)NC(=O)[C@@]23C[C@H]2/C=C\CCCCC[C@H](NC(=O)c2ccc(F)s2)C(=O)N2C[C@H](Oc4nc5cc(F)ccc5c5ccccc45)C[C@H]2C(=O)N3)CC1,0.1 to 0.5

# Same assay, conditions: HuH-7 cells, 5% FBS
row,Structure (SMILES),EC50 [nM]
1,O=C(N[C@H]1CCCCC/C=C\[C@@H]2C[C@@]2(C(=O)NS(=O)(=O)C2CC2)NC(=O)[C@@H]2C[C@@H](Oc3nc4cc(F)ccc4c4cc(F)ccc34)CN2C1=O)c1cscn1 [drawing 125],0.1 to 0.5
